Where two headings read alike, the source gives them in different places.
Experiments:
[1] = molecular target: Beta Secretase enzyme (BACE) (Homo sapiens, UniProt P56817); test: In vitro enzymatic BACE FRET assay; type: biochemical; conditions: average IC50, in vitro enzymatic BACE FRET assay; read-out: BACE1 FRET assay IC50
How it was run: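 Cleavage of a quenched 50 nM FRET peptide substrate, read as fluorescence (excitation 488 nm, […]) after 1 h and Tris quench to neutrality. Buffer: 0.05 M acetate pH 4.2 with 10% DMSO and 100 uM genapol. Inhibitor dilutions were pre-incubated 1 h with 0.2 nM enzyme.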

[2] = test system: Aβ 40 in conditioned medium of cells stably expressing Amyloid Precursor Protein (APP); test: In vitro BACE cell-based assay (Aβ 40 sandwich ELISA); conditions: Homo sapiens, HEK293; average IC50, HEK cell assay, Aβ 40 readout
How it was run: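 Aβ40 in conditioned medium measured by pAb40/biotin-6E10 sandwich ELISA with time-resolved europium fluorescence, after 24 h exposure of stable APP cells to compounds (10-point series starting 100 μM or 10 μM; 0.1% DMSO). IC50 fitted from percent of control against concentration.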

Cathepsin D (Cat D) = Cathepsin D (Cat D) (Homo sapiens, UniProt P07339); test: In vitro enzymatic Cathepsin D (Cat D) FRET assay; type: biochemical; conditions: Cathepsin D FRET assay; read-out: CatD IC50
Cathepsin D (Cat D), sequence (P07339 65-412, species assumed): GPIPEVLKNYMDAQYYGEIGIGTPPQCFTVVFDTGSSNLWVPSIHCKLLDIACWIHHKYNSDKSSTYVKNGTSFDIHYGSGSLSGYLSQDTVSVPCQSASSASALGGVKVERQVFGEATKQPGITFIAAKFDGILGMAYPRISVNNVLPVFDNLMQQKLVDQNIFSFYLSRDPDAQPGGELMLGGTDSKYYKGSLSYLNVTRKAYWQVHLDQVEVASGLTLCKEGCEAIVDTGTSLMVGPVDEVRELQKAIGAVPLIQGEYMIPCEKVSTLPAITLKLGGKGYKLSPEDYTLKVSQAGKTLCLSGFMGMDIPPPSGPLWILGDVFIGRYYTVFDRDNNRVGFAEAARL
How it was run: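 FRET peptide substrate (20 nM) is cleaved by CHO-derived recombinant enzyme (9 nM) for 1 h after a 1 h inhibitor pre-incubation, at pH 3.5 in citrate buffer with 5 mM CHAPS and 10% DMSO. Tris addition ends the reaction; fluorescence measured at 500 nm excitation, 580 nm emission.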

Abeta 40 = test: In vivo inhibition of beta-secretase: Abeta 40 reduction in CSF and brain of the rat; conditions: 10 mpk (unless otherwise noted), after 4 hrs
Text: In Vivo Inhibition of Beta-Secretase
Several animal models, including mouse, rat, dog, and monkey, may be used to screen for inhibition of beta-secretase activity in vivo following administration of a test compound sample. Animals used in this invention can be wild type, transgenic, or gene knockout animals. For example, the Tg2576 mouse model, prepared and conducted as described in Hsiao et al., 1996, Science 274, 99-102, and other non-transgenic or gene knockout animals are useful to analyze in vivo inhibition of Amyloid beta peptide (Abeta) production in the presence of inhibitory test compounds. Generally, 2 to 18 month old Tg2576 mice, gene knockout mice or non-transgenic animals are administered test compounds formulated in vehicles, such as cyclodextran, phosphate buffers, hydroxypropyl methylcellulose or other suitable vehicles. One to twenty-four hours following the administration of compound, animals are sacrificed, and brains as well as cerebrospinal fluid (CSF) and plasma are removed for analysis of A-beta levels and drug or test compound concentrations (Dovey et al., 2001, Journal of Neurochemistry, 76, 173-181) Beginning at time 0, animals are administered by oral gavage, or other means of delivery such as intravenous injection, an inhibitory test compound of up to 100 mg/kg in a standard, conventional formulation, such as 2% hydroxypropyl methylcellulose, 1% Tween80. A separate group of animals receive 2% hydroxypropyl methylcellulose, 1% Tween80 alone, containing no test compound, and serve as a vehicle-control group. At the end of the test period, animals are sacrificed and brain tissues, plasma or cerebrospinal fluid are collected. Brains are either homogenized in 10 volumes (w/v) of 0.2% diethylamine (DEA) in 50 mM NaCl (Best et al., 2005, Journal of Pharmacology and Experimental Therapeutics, 313, 902-908), or in 10 volumes of 0.5% TritonX-100 in Tris-buffered saline (pH at about 7.6). Homogenates are centrifuged at 355,000 g, 4° C. for 30 minutes. CSF or brain supernatants are then analyzed for the presence of A-beta peptide by specific sandwich ELISA assays based on ECL (Electrochemiluminescence) technology. For example, rat Abeta40 is measured using biotinylated-4G8 (Signet) as a capture antibody and Fab40 (an in-house antibody specific to the C-terminal of Abeta40) as a detection antibody. For example, 4 hours after administration of 30 mg/kg oral dose of the test compound in 2% hydroxypropyl methylcellulose, 1% Tween80 (pH2.2) to 200 g male Sprague Dawley rats, amyloid beta peptide levels are measured for reduction by X % and Y % in cerebrospinal fluid and brain, respectively, when compared to the levels measured in the vehicle-treated or control […].
Actual vehicles used: Oral: 2% HPMC, 1% Tween80, pH 2.2
• IV: 5% EtOH, 45% Propylene Glycol in 5% Dextrose
The compounds of the invention may be shown to reduce the formation and/or deposition of amyloid beta peptide in the cerebrospinal fluid (CSF) as well as in the brain of a mouse or rat at either 3 mpk, 10 mpk or 30 mpk (mpk=mg compound per kg weight of the animal) dosing concentrations after 4 hrs.

[3] = test system: pigment epithelium of the rat's eye; conditions: higher compound dose given for three months; cited from earlier work

Beta Secretase enzyme (BACE), sequence (P56817 46-501): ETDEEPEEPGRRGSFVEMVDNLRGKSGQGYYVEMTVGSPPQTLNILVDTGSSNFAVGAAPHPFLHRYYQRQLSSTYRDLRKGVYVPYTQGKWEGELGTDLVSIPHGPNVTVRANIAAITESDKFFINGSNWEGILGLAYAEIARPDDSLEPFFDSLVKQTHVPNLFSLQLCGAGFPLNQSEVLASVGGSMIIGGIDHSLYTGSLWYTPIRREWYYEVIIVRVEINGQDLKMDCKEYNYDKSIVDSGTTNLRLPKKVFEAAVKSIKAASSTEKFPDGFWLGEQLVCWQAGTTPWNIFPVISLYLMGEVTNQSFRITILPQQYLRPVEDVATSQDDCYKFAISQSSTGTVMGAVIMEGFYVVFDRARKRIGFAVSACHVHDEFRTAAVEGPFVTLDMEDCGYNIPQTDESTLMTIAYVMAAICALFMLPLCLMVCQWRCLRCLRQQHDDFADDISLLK

IC50 [1]	IC50 [2]	IC50 (Cathepsin D (Cat D))	SMILES	inhibition in vivo at 10 mg/kg (Abeta 40; Abeta 40 in CSF of the rat, read-out: % reduction of rat CSF levels at 10 pmk)	inhibition in vivo at 10 mg/kg (Abeta 40; Abeta 40 in brain of the rat, read-out: % reduction of rat brain levels at 10 mpk)	toxicology finding in the eye [3]
2 nM	2 nM	610000 nM	C#CCOc1cnc2c(Nc3ccc4c(c3)[C@@]3(C)N=C(N)C(C)(C)S(=O)(=O)[C@@H]3C[C@H](C)O4)nccc2n1 [Example 140, (4aR,6S,11bR)-3,3,6,11b-tetramethyl-N^~10^~-(2-(2-propyn-1-yloxy)pyrido[3,4-b]pyrazin-5-yl)-4a,5,6,11b-tetrahydro-3H-[1]benzoxepino[4,5-b][1,4]thiazine-2,10-diamine 4,4-dioxide]	71%	72%	–
–	–	–	C[C@@]1(c2cc(-c3cncnc3)c(F)cc2F)CCSC(N)=N1 [LY 2811376]	–	–	damaged the pigment epithelium of the rat's eye
